# From PubChem BioAssay AID977622 (Broad Institute, 2014)
# Results filed as inconclusive are left out. Active and inactive are the calls of the source.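 How the source made its calls: active means Green signal of the normal strain falls at least twice as much as red signal of the resistant mutant, with overall culture growth loss under a set limit; inconclusive means no clear call, values can overlap the other calls; inactive means the rest.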
# Key:
# [1] = test system: E. coli h38 humanized mutant ribosome RFP fluorescence, mixed culture, 24 h; experiment: growth inhibition of wild-type GFP E. coli, dose response, h38 mutant RFP, cherry-pick (AID 977622); conditions: measured here: h38 humanized mutant RFP strain
# [2] = test system: E. coli WT ribosome GFP fluorescence, mixed culture, 24 h; experiment: as above
# [3] = E. coli mixed culture, 24 h, measured here: total growth OD600
Compound,AC50 [1] [µM],AC50 [2],"AC50 [2, 3] [µM]"
COC(=O)c1c(-c2ccc(OC)cc2)sc2cc(OC)c(OC)cc12,> 100,> 100 µM (inactive),45.8
O=C(O)CSc1nnc(-c2ccc(Cl)cc2Cl)n1-c1ccc(Br)cc1,> 100,> 100 µM (inactive),> 100
NS(=O)(=O)c1cccc(NC(=O)CSc2nc3ccccc3n2-c2ccccc2)c1,> 100,> 100 µM (inactive),36
Cc1cccc(Nc2nc(-c3ccc(F)cc3)cs2)n1,> 100,> 100 µM (inactive),> 100
Cc1ccccc1CSCC(=O)Nc1ccccc1F,> 100,,
CC(C)(C)S(=O)(=O)Cc1nc(-c2ccc(Cl)c(Cl)c2)cs1,> 100,> 100 µM (inactive),> 100
CC(C)=C(c1ccc(Cl)cc1)c1c(N)ncnc1N,> 100,,
O=C(Nc1cccc(Cl)c1)c1ccc(S(=O)(=O)NCC2CCCO2)cc1 (stereo unspecified),43.4,> 100 µM (inactive),52.5
Cc1nc([N+](=O)[O-])c(Br)n1CC(=O)c1ccc(F)cc1,4.58,> 100 µM (inactive),
CS(=O)(=O)c1ccc(Cl)c(NC(=O)CSc2nncn2-c2ccccc2)c1,> 100,> 100 µM (inactive),
COc1cccc(NC(=O)C2CCC(CNS(=O)(=O)c3cccs3)CC2)c1 (stereo unspecified),> 100,> 100 µM (inactive),
NC(=O)c1cccnc1Oc1ccc(Cl)cc1Cl,> 100,> 100 µM (inactive),
C=CCn1c(C)cc(C(=O)CSc2nnc(C3CC3)n2C2CC2)c1C,> 100,,> 100
Cc1ccccc1-c1cc(C(=O)NCc2cccs2)n(CC2CC(c3cccnc3)=NO2)n1 (stereo unspecified),> 100,> 100 µM (inactive),
CN(C)CCCN(C(=O)CCOc1ccccc1)c1nc2c(F)cccc2s1,> 100,,
CN1C(=O)c2cc(NC(=O)c3cccc(F)c3)ccc2OC[C@H]2O[C@@H](CC(=O)NCC3CCCCC3)CC[C@@H]21,> 100,,
C[C@H]1CN([C@@H](C)CO)C(=O)c2c(c3ccccc3n2C)-c2ccccc2CO[C@@H]1CN(C)Cc1ccncc1,> 100,,
O=S(=O)(NOCc1ccc(Cl)cc1)c1ccc(Cl)cc1,52,,
CCOc1ccc(C(C)=O)cc1CN1C(=O)NC2(CCCCCCC2)C1=O,> 100,,
Cc1cc(SCC(=O)c2cccs2)n2nc(C)c(-c3ccc(Cl)cc3)c2n1,> 100,,
O=C(Nc1ccc(C(=O)c2ccccc2)cc1)c1ccccc1,> 100,,

Compound,AC50 [1] [µM],AC50 [2],"AC50 [2, 3] [µM]"
COc1ccc(NC(=O)Nc2cccc3c2O[C@H](CN(C)S(=O)(=O)c2ccc(Cl)cc2)[C@H](C)CN([C@H](C)CO)C3=O)cc1,,> 100 µM (inactive),44.2
O=[N+]([O-])c1ccccc1CN1CCN(S(=O)(=O)c2ccccc2)CC1,,> 100 µM (inactive),
CC(=O)Nc1cccc2c1Cc1cc([N+](=O)[O-])ccc1-2,,> 100 µM (inactive),
COc1ccc(OC2C(=O)N(Cc3ccc4c(c3)OCO4)C2c2cccs2)cc1 (stereo unspecified),,> 100 µM (inactive),
Cc1c(Cc2ccccc2)sc(NC(=O)Cc2ccccc2)c1C(N)=O,,> 100 µM (inactive),
COC(=O)c1ccc(OS(=O)(=O)c2ccc(NC(C)=O)cc2)cc1,,> 100 µM (inactive),
COc1ccc(C(=O)N(c2ccccc2)c2nccc3ccccc23)cc1OC,,> 100 µM (inactive),
O=C(C[n+]1cc(-c2ccc(Cl)c(Cl)c2)n2c1CCC2)OCc1ccccc1,,> 100 µM (inactive),
CCOc1ccc(N(CC(=O)NC(C(C)C)C(C)C)S(=O)(=O)c2ccc(OC)c(OC)c2)cc1,,> 100 µM (inactive),50.9
O=C(CSCc1c(Cl)cccc1Cl)Nc1cccnc1,,> 100 µM (inactive),> 100
O=C(NCc1ccc(-c2nc3ccccc3s2)cc1)c1ccco1,,> 100 µM (inactive),3
CCOC(=O)c1cccc(OS(=O)(=O)Cc2ccccc2)c1,,> 100 µM (inactive),> 100
CCN(CC)S(=O)(=O)c1ccc(O)c(C(=O)OCC(=O)NC23CC4CC(CC(C4)C2)C3)c1,,,> 100
CCN(CC)CCN(C(=O)c1ccccc1OC)c1nc2ccc(F)cc2s1,,> 100 µM (inactive),> 100
O=C(NCCc1ccc(Cl)cc1)c1ccc2nc[nH]c2c1,,> 100 µM (inactive),
COC(=O)CN1C(=S)N(c2ccc(Cl)cc2)C(=O)C1CC(=O)Nc1ccc(F)cc1 (stereo unspecified),,> 100 µM (inactive),
O=C(NCc1ccccc1)c1ccc(-c2cn[nH]c2)c2ccoc12,,,> 100
O=C(NCc1cccnc1)C1CCN(S(=O)(=O)c2cc([N+](=O)[O-])ccc2Cl)CC1,,> 100 µM (inactive),
Cc1ccc(C)c(N(CC(=O)NC2CCCC2)C(=O)c2oc(C(C)(C)C)cc2C)c1,,,> 100
COc1ccc(CNC(=O)c2sc3nc4c(c(C(F)(F)F)c3c2N)CCC4)cc1OC,,,> 100
COc1ccccc1NS(=O)(=O)c1cc(C(=O)Nc2ccc(S(=O)(=O)Nc3onc(C)c3C)cc2)ccc1C,,> 100 µM (inactive),

Compound,AC50 [1] [µM],AC50 [2],"AC50 [2, 3] [µM]"
CC(=O)OC(COc1cccc(C)c1)Cn1cnc2ccccc21 (stereo unspecified),,> 100 µM (inactive),50.7
COc1ccc(NC(=O)CSc2n[nH]c(-c3ccncc3)n2)c([N+](=O)[O-])c1,,> 100 µM (inactive),> 100
COc1cccc(-c2ccc(NC(=O)C3CCCN(Cc4cnn(C(C)C)c4)C3)cc2)c1 (stereo unspecified),> 100,,
CC(=O)N1CCOc2ccc(S(=O)(=O)N(C)c3ccc(C)cc3)cc21,,> 100 µM (inactive),
COc1ccc(OCC(=O)N2c3ccccc3CC2C)c([N+](=O)[O-])c1 (stereo unspecified),,> 100 µM (inactive),> 100
N#Cc1cccc(-c2ccc3c(c2)[C@H]2[C@H](CCN2C(=O)c2ccccc2F)[C@H](CO)N3)c1,,> 100 µM (inactive),
O=C(c1cc2cc(F)ccc2[nH]1)N1CCN(Cc2ccc3c(c2)OCO3)CC1,,> 100 µM (inactive),20.8
CN(C)C(CNS(=O)(=O)c1cc([N+](=O)[O-])ccc1Cl)c1ccco1 (stereo unspecified),,> 100 µM (inactive),> 100
Cc1cccc(NC(=O)c2c(C)nn(-c3ccccc3)c2Cl)c1,,> 100 µM (inactive),
Cn1cnc(CCNC(=O)C[C@H]2CC[C@@H]3[C@H](COC[C@H](O)CN3C(=O)Nc3ccc(Cl)cc3)O2)c1,,> 100 µM (inactive),
O=C(Cc1ccc(Br)cc1)Nc1cccc(-c2cn3c(n2)SCC3)c1,,> 100 µM (inactive),> 100
C[C@@H]1CN([C@@H](C)CO)C(=O)c2cc(NC(=O)C3CC3)ccc2O[C@H]1CN(C)C(=O)Nc1ccc(C(F)(F)F)cc1,,> 100 µM (inactive),
COc1ccc(-c2ccccc2)cc1NC(=O)c1ccncc1,,> 100 µM (inactive),
CCSc1nc2ccccc2c(=O)n1Cc1ccc(F)cc1,,> 100 µM (inactive),
Cc1ccc(S(=O)(=O)Nc2ccccc2CNc2cccc(C)n2)cc1,,,> 100
Cc1ccc2oc(C(=O)N(CCO)Cc3ccccc3)c(C)c2c1,,> 100 µM (inactive),37.1
COC(=O)c1c(NC(=O)c2ccccc2C(=O)O)sc2c1CCC2,,> 100 µM (inactive),
CCCCc1ccc(S(=O)(=O)Nc2ccc(C)c(NS(C)(=O)=O)c2)cc1,,> 100 µM (inactive),51.4
O=C(CCNC(=O)c1ccco1)Nc1cccc(Br)c1,,> 100 µM (inactive),> 100
COc1ccccc1Cn1c(=S)[nH]c2ccccc2c1=O,,> 100 µM (inactive),42.1
COc1ccc(-c2csc(NC(=O)c3ccoc3C)n2)cc1,,> 100 µM (inactive),> 100

Compound,AC50 [1] [µM],AC50 [2],"AC50 [2, 3] [µM]"
CN1c2ccc(C#Cc3cccnc3)cc2[C@@H]2[C@@H](CCN2C(=O)c2cccc(F)c2)[C@H]1CO,,> 100 µM (inactive),
CCCC[n+]1ccn(-c2nc3ccccc3nc2[N-]S(=O)(=O)c2cccs2)c1,,> 100 µM (inactive),> 100
CO[C@@H]1CN(C)C(=O)c2cc(NC(=O)C3CCCC3)ccc2OC[C@@H](C)N(C(=O)Nc2ccc(C(F)(F)F)cc2)C[C@H]1C,,> 100 µM (inactive),49.5
Cc1ccc(CNS(=O)(=O)c2ccc3c(c2)NC(=O)CS3)cc1,,> 100 µM (inactive),41
Nc1ccccc1Nc1ccc([N+](=O)[O-])cc1[N+](=O)[O-],,> 100 µM (inactive),
CC(C)N1CC2(CC(c3ccccc3C(F)(F)F)=NO2)CN1C(=O)c1ccco1 (stereo unspecified),,> 100 µM (inactive),> 100
COC(=O)c1c(C)oc(C)c1S(=O)(=O)NC(c1ccccc1)c1ccccc1,,> 100 µM (inactive),35.7
CC(=O)Nc1cccc(OCc2ccc([N+](=O)[O-])cc2)c1,> 100,,
COc1ccc(C#Cc2ccc([C@H]3[C@@H](CO)N4CCCCN(C(=O)Nc5cccc(F)c5)C[C@H]34)cc2)cc1,,,> 100
Clc1ccc(-c2cn(-c3ccccc3)c3[n+]2CCS3)cc1,,> 100 µM (inactive),
O=C(O)c1ccc2c(c1)N(Cc1ccc(F)cc1)C(=O)c1ccccc1S2,,> 100 µM (inactive),
Cc1cc(NC(=O)c2cccc(Oc3ccccc3)c2)n[nH]1,,> 100 µM (inactive),40.6
O=C(COC(=O)C1CC2C=CC1C2)Nc1ccc([N+](=O)[O-])cc1 (stereo unspecified),,,> 100
O=C(NCCc1ccc(O)cc1)c1[nH]c(C(F)(F)F)nc1-c1ccccc1,,> 100 µM (inactive),> 100
Cc1ccccc1S(=O)(=O)N1C[C@H]2CON(C)[C@H]2C[C@H]1c1cccc(-c2ccc(C#N)cc2)c1,> 100,,
O=C1N[C@@H](Cc2ccccc2)COC(=O)[C@H](Cc2ccc(F)cc2)C/C=C\C[C@H]1CC(=O)N(CCO)Cc1ccccc1,,> 100 µM (inactive),
CCOc1ccc(-c2nc(-c3cccs3)c(CC(=O)O)s2)cc1OC,,,> 100
COc1cc2nc(Nc3ccc(F)cc3)nc(N)c2cc1OC,,> 100 µM (inactive),
Cc1cccc(Oc2ccc(NC(=O)c3ccccc3C(=O)O)cc2)c1,,,> 100
COc1ccc(Cl)cc1C(=O)OCC(=O)c1ccc[nH]1,,> 100 µM (inactive),
NS(=O)(=O)c1cccc(NC(=O)COc2ncnc3c2cnn3-c2ccccc2)c1,,> 100 µM (inactive),
